Test results taken from US8685726B2, “Small molecules supporting pluripotent cell growth and methods thereof” (Viacyte, Inc., priority 2009, dated 2014).
“Also recorded” adds a separate entry of the source.

Tests used:
CyT49 cells = test: Karyotyping (G-banding) of replated suspension cultures after 10 passages; format: cell-based, human; conditions: after 10 passages in suspension, G-banded
Protocol: FIG. 11. Suspension hES cell cultured with NE, […] remain undifferentiated. CyT49 cells were grown as suspension aggregates in the presence of NE, […] for 16 passages without differentiating morphologically. After p10, some cells were re-plated to adherent culture and examined by karyotyping and immunofluorescent staining for OCT4 and Tra-1-61. All cultures remained undifferentiated and expressed these pluripotency markers uniformly. (SP) StemPro® SFM HIA, NE (+NE at 50 μM), ACh (+ACh at 50 μM), NE/ACh (+NE/ACh at 50 μM). Karyotype data is shown to the right. […] Cultures containing ACh were aneuploid.
To examine these possibilities, these cultures were serially passaged to p1 (FIG. 10E). Because Y27632 treated aggregates were of a larger size, they required passaging after only 3 days, and only generated about 1.2×10^7 cells during that period. In contrast, the cultures containing NE, ACh or NE/ACh were cultured for 6 days and generated greater than 2×10^7 cells per well. Suspension cultures containing NE, ACh or NE/ACh were maintained for 12 serial passages, in parallel with a HAIF control culture, and all conditions maintained an undifferentiated morphology throughout. Suspension aggregates were dissociated to single cells after 10 passages and replated to adherent culture for analyses. […] Replated cultures were also G-banded to determine their karyotype.

[1] = system: hES cells (e.g., BGO2 cells); test: Low-density colony forming / colony counting assay (AP+ colonies); format: cell-based, human
Protocol: FIG. 2. Low density plating assay of hES cells (e.g., BGO2 cells). 10000 cells/well were plated in 6-well trays in StemPro® hESC SFM (Life Technologies) medium and stained with alkaline phosphatase (AP+) after 7 days. Y (Y27632), ACh (acetylcholine), NMDA (N-methyl-D-aspartic acid), NE ((−)-Norepinephrine), NE.Bit ((±)-Norepinephrine (+)-bitartrate). Compounds were added at 10 or 50 μM as indicated.
FIG. 3. Low density plating assay of hES cells. (A) 200-10000 cells/well were plated in […] trays in StemPro® hESC SFM medium, or StemPro® hESC SFM +50 μM NE, or +50 μM ACh, and stained with alkaline phosphatase (AP+) after 8 days. […] ACh (acetylcholine), NE ((±)-Norepinephrine (+)-bitartrate). […]
About 10^4 hES cells/well were plated in 6-well trays in StemPro® hESC SFM, in the presence of different compounds and cultured for about 7 days. The cultures were then fixed, stained for alkaline phosphatase activity and colonies were counted (FIG. 2). […] The (±)-Norepinephrine (+)-bitartrate salt was used for all subsequent experiments involving norepinephrine (NE) unless specifically described otherwise.
A similar colony counting experiment was performed using a range of cell densities (FIG. 3). […] See Robins and Schulz 2009, supra. […]

CC(=O)OCC[N+](C)(C)C [ACh, acetylcholine]
karyotype (CyT49 cells): aneuploid or abnormal; also recorded: aneuploid | fewest plated cells per well at which colonies were observed ([1]; 50 μM, 8 days): 500 plated cells

NCC(O)c1ccc(O)c(O)c1 (racemic) [NE, (±)-Norepinephrine (+)-bitartrate]
colonies detected compared to StemPro hESC SFM medium alone ([1]; 50 μM, 200-10000 cells/well, 8 days): More than four times as many colonies | fewest plated cells per well at which colonies were observed ([1]; 50 μM, 8 days): 1000 plated cells | support of colony formation at low density ([1]; 10^4 cells/well, StemPro hESC SFM, 7 days, compounds at 10 or 50 μM): supported elevated colony formation
